From patent publication US4160829A, “Antibacterial 1,2,4-oxadiazolylacetamido cephalosporins” (Gist-Brocades N.V., priority 1972, dated 1979) come the findings set out here.

Data set [1] deals with Kleb.pneum. A 809. The data set is described as follows: agar serial dilution test. It is filed as cell-based, Klebsiella pneumoniae. As to conditions: Klebsiella pneumoniae; agar serial dilution, 24 hours, 37° C.; read-out: minimal inhibitory concentration (MIC).
The subject of data set [2] is Prot.rettg. A 821. Description: agar serial dilution test. The data set is classed as cell-based, Proteus rettgeri. The settings on record: Providencia rettgeri, 24 h, read-out: minimal inhibitory concentration (MIC).
For data set [3], the system named is Staph.aureus A 321. Description: agar serial dilution test. It is filed as cell-based, Staphylococcus aureus. As to conditions: Staphylococcus aureus, A321, 24 h, agar serial dilution, 24 hours, 37° C.; read-out: minimal inhibitory concentration (MIC).
Data set [4] has as its system Pseud.aerug. 2396. The data set is described as follows: agar serial dilution test. The data set is classed as cell-based. The settings on record: agar serial dilution, 24 hours, 37° C.; read-out: minimal inhibitory concentration (MIC).
The test system of data set [5] is Shig.equir. T 3. Description: agar serial dilution test. The settings on record: 24 h, 37° C., read-out: minimal inhibitory concentration (MIC). The data set is classed as cell-based.
Data set [6] relates to Prot.mirab. A 1200. Description: agar serial dilution test. It is filed as cell-based, Proteus mirabilis. As to conditions: Proteus mirabilis, 24 h, agar serial dilution, 24 hours, 37° C.; read-out: minimal inhibitory concentration (MIC).
Data set [7] relates to Pseud.aerug. Wyeth A 1058. The data set is described as follows: agar serial dilution test. The data set is classed as cell-based. The settings on record: agar serial dilution, 24 hours, 37° C.; read-out: minimal inhibitory concentration (MIC).
The subject of data set [8] is Prot.mirab. L 93. The data set is described as follows: agar serial dilution test. The data set is classed as cell-based, Proteus mirabilis. As to conditions: Proteus mirabilis; agar serial dilution, 24 hours, 37° C.; read-out: minimal inhibitory concentration (MIC).
For data set [9], the system named is Strep.haem. A 266. The data set is described as follows: agar serial dilution test. The data set is classed as cell-based, Streptococcus haemolyticus. As to conditions: Streptococcus; agar serial dilution, 24 hours, 37° C.; read-out: minimal inhibitory concentration (MIC).
Data set [10] concerns Staph.aureus A 2001. The data set is described as follows: agar serial dilution test. The data set is classed as cell-based, Staphylococcus aureus. The settings on record: Staphylococcus aureus, A2001, 24 h, agar serial dilution, 24 hours, 37° C.; read-out: minimal inhibitory concentration (MIC).
Data set [11] relates to Prot.morg. 2241. The data set is described as follows: agar serial dilution test. The data set is classed as cell-based. The settings on record: 24 h, agar serial dilution, 24 hours, 37° C.; read-out: minimal inhibitory concentration (MIC).
Data set [12] has as its system Esch.coli U 20. The data set is described as follows: agar serial dilution test. It is filed as cell-based, Escherichia coli. The settings on record: Escherichia coli.
The test system of data set [13] is Staph.aureus A 2000. The data set is described as follows: agar serial dilution test. The data set is classed as cell-based, Staphylococcus aureus. As to conditions: Staphylococcus aureus, A2000, 24 h, agar serial dilution, 24 hours, 37° C.; read-out: minimal inhibitory concentration (MIC).
For data set [14], the system named is Pseud.aerug. H 10. The data set is described as follows: agar serial dilution test. The data set is classed as cell-based. As to conditions: agar serial dilution, 24 hours, 37° C.; read-out: minimal inhibitory concentration (MIC).
Data set [15] concerns Salm.dubl. P 43. The data set is described as follows: agar serial dilution test. It is filed as cell-based, Salmonella dublin. As to conditions: Salmonella enterica; agar serial dilution, 24 hours, 37° C.; read-out: minimal inhibitory concentration (MIC).
For data set [16], the system named is Dipl.pneum. L 54. The data set is described as follows: agar serial dilution test. It is filed as cell-based, Diplococcus pneumoniae. As to conditions: Streptococcus pneumoniae; agar serial dilution, 24 hours, 37° C.; read-out: minimal inhibitory concentration (MIC).
Data set [17] concerns Bruc.melit. A 488. Description: microbe, parasite or virus in culture. As to conditions: Brucella melitensis, 24 h, read-out: minimal inhibitory concentration (MIC). The data set is classed as cell-based.
The test system of data set [18] is Prot.mirab. H 3. Description: agar serial dilution test. The settings on record: Proteus mirabilis; agar serial dilution, 24 hours, 37° C.; read-out: minimal inhibitory concentration (MIC). It is filed as cell-based, Proteus mirabilis.
For data set [19], the system named is Staph.aureus A 2000. The data set is described as follows: micro serial dilution test. It is filed as cell-based, Staphylococcus aureus. The settings on record: Staphylococcus aureus, A2000, 18 h, micro serial dilution (in brackets), about 18 hours, 30° C. or 37° C.; read-out: minimal inhibitory concentration (MIC).
Data set [20] relates to Staph.aureus A 355. The data set is described as follows: micro serial dilution test. The data set is classed as cell-based, Staphylococcus aureus. The settings on record: Staphylococcus aureus, A355; micro serial dilution (in brackets), about 18 hours, 30° C. or 37° C.; penicillinase-producing strain; read-out: minimal inhibitory concentration (MIC).
Data set [21] concerns Staph.aureus A 355. The data set is described as follows: agar serial dilution test. The settings on record: Staphylococcus aureus, A355, 24 h, read-out: minimal inhibitory concentration (MIC), agar serial dilution, 24 hours, 37° C.; penicillinase-producing strain.
Data set [22] concerns Past.multo. A 723. Description: agar serial dilution test. The data set is classed as cell-based, Pasteurella multocida. As to conditions: Pasteurella multocida; agar serial dilution, 24 hours, 37° C.; read-out: minimal inhibitory concentration (MIC).
Data set [23] relates to Haem.infl. A 1030. The data set is described as follows: micro serial dilution test. It is filed as cell-based. The settings on record: 18 h, micro serial dilution (in brackets), about 18 hours, 30° C. or 37° C.; read-out: minimal inhibitory concentration (MIC).
In data set [24] the test system is Staph.aureus A 2001. The data set is described as follows: micro serial dilution test. As to conditions: Staphylococcus aureus, A2001, 18 h, micro serial dilution (in brackets), about 18 hours, 30° C. or 37° C.; read-out: minimal inhibitory concentration (MIC). The data set is classed as cell-based, Staphylococcus aureus.
Data set [25] concerns Salm.typh. R 127. Description: agar serial dilution test. It is filed as cell-based. The settings on record: 24 h, 37° C., read-out: minimal inhibitory concentration (MIC).
Data set [26] concerns Strep. faec. L 80. Description: agar serial dilution test. It is filed as cell-based, Streptococcus faecalis. As to conditions: Enterococcus faecalis; agar serial dilution, 24 hours, 37° C.; read-out: minimal inhibitory concentration (MIC).
Data set [27] concerns Bac.Subt.ATCC 6633. The data set is described as follows: agar serial dilution test. As to conditions: Bacillus subtilis, ATCC6633, 24 h, agar serial dilution, 24 hours, 37° C.; read-out: minimal inhibitory concentration (MIC). It is filed as cell-based, Bacillus subtilis.
Data set [28] has as its system Strep.haem. A 266. The data set is described as follows: micro serial dilution test. The data set is classed as cell-based, Streptococcus haemolyticus. As to conditions: Streptococcus; micro serial dilution (in brackets), about 18 hours, 30° C. or 37° C.; read-out: minimal inhibitory concentration (MIC).
Data set [29] in a line: blood and urine contents after intramuscular administration in rabbits. The settings on record: rabbit, im, intramuscular 50 mg/kg. The data set is classed as in vivo, rabbits "Nieuw Zeelander". On the procedure: (d) the blood and urine contents of the above-indicated compound G and of monosodium 7-[(3-carboxymethyl-1,2,4-oxadiazol-5-yl)acetamido]-3-acetoxymethyl-3-cephem-4-carboxylate (as prepared in example 35) were determined after intramuscular administration of these compounds in an aqueous solution in rabbits, as listed below:
test animals: rabbits "Nieuw Zeelander"
Each testgroup consisted of 3 rabbits.
Vehiculum: Physiol. saline solution
Bloodsamples were taken after 1/4--1/2--1--2--4 hours Urinesamples were taken after 1--3--6--24--27 hours (in practice only the secreted amounts after 6 and 24 hours were used).
Testorganisms: Bacillus subtilis ATCC 6633 and Bacillus callidolactis E 16.
The contents of the compounds in the samples were determined microbiologically.
(Only microbiologically detected concentrations, i.e. anti-bacterially active concentrations only have been indicated and determined in relation to the original administered compound).

SMILES strings stand for the structures. ≈ marks a conversion by molar mass, not a printed value. Like-named read-outs stand apart in the source and are kept apart here.

In the case of `Cc1nc(CC(=O)N[C@@H]2C(=O)N3C(C(=O)O)=C(CN=[N+]=[N-])C[S+]([O-])[C@H]23)no1` (stereo partly drawn) [Example 19, R-sulfoxide of 7-[(5-methyl-1,2,4-oxadiazol-3-yl)-acetamido]-3-azidomethyl-3-cephem-4-carboxylic acid], the MIC in [1] was 50 mg/L (≈ 126 µM); in [2] (agar serial dilution, 24 hours, 37° C.), 6 mg/L (≈ 15.2 µM); in [3], 6 mg/L (≈ 15.2 µM); in [4] it was > 100 mg/L; in [5], 6 mg/L (≈ 15.2 µM); in [6] it was > 100 mg/L. The MIC in data set [7] was > 100 mg/L; in data set [8], 25 mg/L (≈ 63.2 µM); in [9], 0.5 mg/L (≈ 1.26 µM); in [10] it was 6 mg/L (≈ 15.2 µM); in [11], > 100 mg/L; in data set [12] (U20, agar serial dilution, 24 hours, 37° C., read-out: minimal inhibitory concentration (MIC)), 100 mg/L (≈ 253 µM). Moreover, the MIC was 6 mg/L (≈ 15.2 µM) in data set [13]; > 100 mg/L in [14]; 25 mg/L (≈ 63.2 µM) in data set [15]; 3 mg/L (≈ 7.59 µM) in data set [16]; 6 mg/L (≈ 15.2 µM) in data set [17]; 50 mg/L (≈ 126 µM) in [18]. Moreover, the MIC in data set [19] amounted to 5 mg/L (≈ 12.6 µM); in data set [20], 15 mg/L (≈ 37.9 µM); in [21] it was 12.5 mg/L (≈ 31.6 µM); in data set [22], 25 mg/L (≈ 63.2 µM); in data set [23], 23 mg/L (≈ 58.2 µM); in data set [24], 6 mg/L (≈ 15.2 µM). Also, the MIC in [25] was 100 mg/L (≈ 253 µM); in data set [26] it was > 100 mg/L; in data set [27] it was 0.5 mg/L (≈ 1.26 µM).

For the molecule `C=CCNC(=O)Cc1nc(CC(=O)N[C@@H]2C(=O)N3C(C(=O)O)=C(COC(C)=O)CS[C@H]23)no1` [Example 31, 7-[5-(N-propen-3-yl)-carbamoylmethyl-1,2,4-oxadiazol-3-yl-acetamido]-cephalosporanic acid], the MIC in data set [1] is 6 mg/L (≈ 12.5 µM); in data set [2], 12.5 mg/L (≈ 26.1 µM); in data set [3] it was 1.5 mg/L (≈ 3.13 µM); in [4] it was > 100 mg/L; in [5], 12.5 mg/L (≈ 26.1 µM); in data set [6] it was 25 mg/L (≈ 52.1 µM). The MIC in [7] is > 100 mg/L; in data set [8], 6 mg/L (≈ 12.5 µM); in [10], 3 mg/L (≈ 6.26 µM); in data set [11] it was > 100 mg/L; in data set [12] (U20, 24 h, read-out: minimal inhibitory concentration (MIC), agar serial dilution, 24 hours, 37° C.), 12.5 mg/L (≈ 26.1 µM); in [13] it was 3 mg/L (≈ 6.26 µM). For the same molecule, the MIC in data set [14] is > 100 mg/L; in [15] it was 6 mg/L (≈ 12.5 µM); in [16], 1.5 mg/L (≈ 3.13 µM); in [18], 25 mg/L (≈ 52.1 µM); in data set [19] it was 1.2 mg/L (≈ 2.5 µM); in [20], 1.9 mg/L (≈ 3.96 µM). For the same molecule, the MIC is 6 mg/L (≈ 12.5 µM) in data set [21]; 1.5 mg/L (≈ 3.13 µM) in data set [22]; ≥ 125 mg/L in data set [23]; 1.2 mg/L (≈ 2.5 µM) in data set [24]; 12.5 mg/L (≈ 26.1 µM) in [25]; 25 mg/L (≈ 52.1 µM) in data set [26]. Moreover, the MIC in data set [28] worked out at 2.5 mg/L (≈ 5.21 µM); in data set [27] it was 1 mg/L (≈ 2.09 µM).

As to `CC(=O)OCC1=C(C(=O)O)N2C(=O)[C@@H](NC(=O)Cc3nc(CC(=O)O)no3)[C@H]2SC1` [Example 35, Monosodium 7-[3-carboxymethyl-1,2,4-oxadiazol-5-yl-acetamido]-cephalosporanate], in [29] (serum, after 1/2 hr, read-out: Serumlevel), the concentration at 0.5 h was 93.7 µg/mL. For the same molecule, the concentration at 0.25 h in data set [29] (serum, after 1/4 hr, read-out: Serumlevel) came to 119 µg/mL. Further, the concentration at 1 h in [29] (serum, after 1 hr, read-out: Serumlevel) turned out to be 56 µg/mL. In addition, the concentration at 2 h in data set [29] (serum, after 2 hr, read-out: Serumlevel) worked out at 15.4 µg/mL. For the same molecule, the concentration at 4 h in [29] (serum, after 4 hr, read-out: Serumlevel) was 1.8 µg/mL. The dose excreted at 6 h in data set [29] (urine, after 6 hr, read-out: Secretion of compound in urine in % of the administered dose) came to 35.9%. Further, the dose excreted at 24 h in data set [29] (urine, after 24 hr, read-out: Secretion of compound in urine in % of the administered dose) was determined as 51.4%.
